ChEMBL document CHEMBL1133576, “Structural basis of the thrombin selectivity of a ligand that contains the constrained arginine mimic (2S)-2-amino-(3S)-3-(1-carbamimidoyl- piperidin-3-yl)-propanoic acid at P1” (J Med Chem, 2000)
pIC50, pKi: −log10 of the molar value.

How the values were obtained:
Serine protease 1 = Serine protease 1 (Homo sapiens, UniProt P07477); assay: Inhibitory activity towards Trypsin
Prothrombin = Prothrombin (Homo sapiens, UniProt P00734); assay: Inhibitory activity towards Thrombin

Sequence of Serine protease 1 (P07477 whole entry): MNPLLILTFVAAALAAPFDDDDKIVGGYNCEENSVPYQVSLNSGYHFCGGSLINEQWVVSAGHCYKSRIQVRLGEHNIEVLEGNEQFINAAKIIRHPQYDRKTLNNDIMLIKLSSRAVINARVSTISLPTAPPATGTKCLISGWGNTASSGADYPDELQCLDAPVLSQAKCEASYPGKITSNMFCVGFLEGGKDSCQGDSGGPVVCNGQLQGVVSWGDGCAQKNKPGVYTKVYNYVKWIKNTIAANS

| Structure (SMILES) | pKi (Serine protease 1) | pKi (Prothrombin) | pIC50 (Serine protease 1) |
| --- | --- | --- | --- |
| N=C(N)N1CCCC(C[C@H](NC(=O)[C@@H]2CC[C@H]3CN(C(=O)CCc4ccccc4)CC(=O)N32)C(=O)c2nccs2)C1 (some centres undefined) | 5.40 | 8.46 | – |
| N=C(N)NCCC[C@H](NC(=O)[C@@H]1CC[C@H]2CN(C(=O)CCc3ccccc3)CC(=O)N21)C(=O)c1nccs1 | – | 9.22 | 9.00 |
